System: C2C12
Test: Induction of [3H]2-deoxy-D-glucose uptake in mouse C2C12 cells after 18 hrs by scintillation counting
Format: functional, cell-based

Molecule `C=C(C)[C@@H]1CC[C@]2(CO)CC[C@]3(C)[C@H](CC[C@@H]4[C@@]5(C)CC[C@H](OC(=O)/C=C/c6ccc(O)c(O)c6)[C@@](C)(CO)[C@@H]5CC[C@]43C)[C@@H]12` has an EC50 of 1.47 µM.

— ChEMBL document CHEMBL1221397, “Bioassay-guided isolation of the antidiabetic principle from Sorbus decora (Rosaceae) used traditionally by the Eeyou Istchee Cree First Nations” (J Nat Prod, 2010)
